Data published in patent US20250213531A1, “5-MEO-DTM FOR THE TREATMENT OF BIPOLAR DISORDER” (GH RESEARCH IRELAND LIMITED, priority 2022, published 2025).

System: patients with postpartum depression (PPD)
Test: Clinical trial of inhaled 5-MeO-DMT (IDR) in postpartum depression, one patient (6 mg then 12 mg)
Conditions: n=1
Description: The single-arm, open-label clinical trial will involve 15 adult female patients with clinically diagnosed postpartum depression (PPD).
The second dose (12 mg) will only be administered if: • a. […] The 6 mg dose was safe and well-tolerated according to the investigator, • c. Any psychoactive effects (PsE) of the prior dose have subsided, and • d. Pre-dose vital parameters and forced expiratory volume in one second (FEV1) are in normal range, or if outside of the normal range, are not clinically significant according to the investigator. • 3. Similarly, a third dose (18 mg) will only be administered if: • a. […] The 12 mg dose was safe and well-tolerated according to the investigator, and • c. Any PsE of the prior dose have subsided, and • d. Pre-dose vital parameters and forced expiratory volume in one second (FEV1) are in normal range, or if outside of the normal range, are not clinically significant according to the investigator.
The patients will be assessed for a peak psychedelic experience (based on a patient-scored visual analogue scale, the PE scale), sedation, and other endpoints after dosing. Follow-up visits are planned for Day 1, and Day 7 after the dosing day.

COc1ccc2[nH]cc(CCN(C)C)c2c1 [5-MeO-DMT]
standard criteria for MADRS response (at least 50% improvement) and MADRS remission (total score <=10): fulfilled | tolerability of inhalation procedure: well tolerated with no inhalation-related adverse events | adverse events (cramping left abdominal pain, headache) (Day 0): mild, short-lasting and resolved spontaneously | ECG, safety laboratory analyses, CADSS (ECG 3 hours, laboratory 7 days, CADSS 3 hours, 1 day, 7 days): unremarkable
